Data reported in paper PMC11532403 (Signal Transduction and Targeted Therapy, 2024).
Where two headings read alike, the source gives them in different places.

Experiments:
RET alterations in ctDNA = assay: ctDNA profiling (1021-gene NGS panel); format: in vivo, human; details: Cycle 1 Day 28, of 23 patients
Method: A retrospective analysis of circulating tumor DNA (ctDNA) profiling was performed using longitudinal plasma samples obtained at baseline, Cycle 1 Day 28, and post-progressive disease. At baseline, blood samples from all patients were subjected for NGS. Among them, 67 (54.9%) patients had detectable RET alterations in ctDNA, including KIF5B-RET (51/122, 41.8%), CCDC6-RET (5/122, 4.1%), NCOA4-RET (3/122, 2.5%), RET^M918T mutation (7/122, 5.7%) and other RET variation (1/122, 0.8%).
For molecular profiling, plasma samples were collected at baseline, Cycle 1 Day 28, and post-progressive disease, and the ctDNA were isolated for analysis. Gene alteration status was analyzed at a central laboratory using a validated, commercially available 1021-gene NGS panel (GenePlus, Beijing, China).

TT cells (RET^C634W) = assay: Proliferation assay (CellTiter-Glo); format: cell-based; details: Homo sapiens, 72 hours, read-out: Cellular Viability IC50
Method: The cell lines HEK293T, Baf3, TT cell and NIH-3T3 were obtained from the Cell Resource Center, Peking Union Medical College (PCRC). […] All stably transformed BaF3 cells were cultured in RPMI 1640 without IL‐3. […] Cells were cultured at 37 °C under 5 % CO2 and high humidity conditions. […] Cell viability was assessed by luminescence using CellTiter-Glo 2.0 assay (Promega). IC50 curve fitting was performed using GraphPad Prism 9.0.

hERG potassium channel = hERG potassium channel (Homo sapiens, UniProt Q12809); assay: hERG whole-cell patch clamp; format: cell-based; details: ± 368.5 nM, read-out: hERG current IC50
hERG potassium channel, sequence (Q12809 whole entry): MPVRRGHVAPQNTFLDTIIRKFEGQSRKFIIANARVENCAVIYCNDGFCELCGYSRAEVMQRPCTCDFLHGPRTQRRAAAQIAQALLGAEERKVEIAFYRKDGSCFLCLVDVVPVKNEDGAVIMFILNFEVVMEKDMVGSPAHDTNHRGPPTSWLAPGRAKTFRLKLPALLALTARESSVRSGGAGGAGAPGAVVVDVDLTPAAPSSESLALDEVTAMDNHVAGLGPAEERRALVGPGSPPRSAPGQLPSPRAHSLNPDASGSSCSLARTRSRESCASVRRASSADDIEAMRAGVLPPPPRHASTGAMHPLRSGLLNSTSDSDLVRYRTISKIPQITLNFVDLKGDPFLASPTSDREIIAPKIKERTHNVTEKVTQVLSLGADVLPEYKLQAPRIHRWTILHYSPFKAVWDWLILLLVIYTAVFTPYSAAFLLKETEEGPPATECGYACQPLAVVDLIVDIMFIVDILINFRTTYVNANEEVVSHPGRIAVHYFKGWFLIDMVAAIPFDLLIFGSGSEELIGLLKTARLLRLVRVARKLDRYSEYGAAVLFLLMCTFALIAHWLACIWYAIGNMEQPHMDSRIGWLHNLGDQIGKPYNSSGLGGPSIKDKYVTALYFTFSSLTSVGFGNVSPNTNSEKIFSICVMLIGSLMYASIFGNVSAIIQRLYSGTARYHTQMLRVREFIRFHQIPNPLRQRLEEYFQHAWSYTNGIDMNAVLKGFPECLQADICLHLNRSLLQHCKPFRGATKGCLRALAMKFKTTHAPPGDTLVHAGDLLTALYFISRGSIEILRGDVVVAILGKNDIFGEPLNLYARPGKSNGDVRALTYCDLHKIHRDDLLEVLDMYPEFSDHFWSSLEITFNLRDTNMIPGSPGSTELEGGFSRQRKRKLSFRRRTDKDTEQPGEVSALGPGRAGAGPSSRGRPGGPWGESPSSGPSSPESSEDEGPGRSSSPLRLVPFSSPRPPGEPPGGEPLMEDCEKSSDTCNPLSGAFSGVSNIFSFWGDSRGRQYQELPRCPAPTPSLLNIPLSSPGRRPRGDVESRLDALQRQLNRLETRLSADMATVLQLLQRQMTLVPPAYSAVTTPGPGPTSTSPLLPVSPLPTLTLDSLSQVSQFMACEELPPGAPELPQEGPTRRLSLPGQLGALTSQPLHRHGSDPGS
From the text: The rapidly activating potassium channel encoded by the human ether a-go-go-related gene (hERG) is an important ion channel involved in the formation of phase 3 repolarisation of the myocardial action potential. Pharmacological blockade of hERG channels can lead to prolonged cardiac repolarisation with the electrocardiographic manifestation of a prolonged QT interval, known as long QT interval syndrome. Drug-induced delayed ventricular repolarisation can in some cases lead to a fatal arrhythmia, tip-twist ventricular tachycardia.

Pharmacokinetics in rats = format: in vivo, SD rats
[1] = Tissue distribution in rats; format: in vivo; details: both sexes, rat, po, 20 mg/kg gavage
From the text: The exposures in body fat, small intestine, heart, uterus, skeletal muscle, testis and brain were lower than in plasma and the rest were higher than in plasma. The highest exposures were found in the liver, stomach and lung, which were 358, 202 and 173% of plasma, respectively. […] There was no significant sex difference in the exposure of SY-5007 in rat tissues.

[2] = Plasma protein binding, rapid equilibrium dialysis; format: in vitro ADME; details: dog, read-out: Plasma protein binding rate (converted)
[3] = Liver microsome metabolic stability; format: in vitro ADME; details: 1 μM
From the text: The production of major metabolites in human liver microsomes is closer to that in rats or dogs than in mice or monkeys. The amounts of major metabolites produced in human liver microsomes was closer to the amount produced in […]. […] In addition to the same eight monophasic metabolites as in the in vitro study, five di-phasic metabolites, M6, M7, M8, M9 and M10, were detected in rat bile, but the peak areas of the di-phasic metabolites were much smaller than those of the monophasic metabolites.

CYP1A2 = molecular target: T1, CYP1A2 (Homo sapiens, UniProt P05177); assay: CYP inhibition in human liver microsomes; format: in vitro ADME; details: 0.5-25 μM
T1 construct: substrates of different CYP450 enzymes in mixed human liver microsomes; from tissue; host or cells: mixed human liver microsomes
T1 sequence (P05177 whole entry): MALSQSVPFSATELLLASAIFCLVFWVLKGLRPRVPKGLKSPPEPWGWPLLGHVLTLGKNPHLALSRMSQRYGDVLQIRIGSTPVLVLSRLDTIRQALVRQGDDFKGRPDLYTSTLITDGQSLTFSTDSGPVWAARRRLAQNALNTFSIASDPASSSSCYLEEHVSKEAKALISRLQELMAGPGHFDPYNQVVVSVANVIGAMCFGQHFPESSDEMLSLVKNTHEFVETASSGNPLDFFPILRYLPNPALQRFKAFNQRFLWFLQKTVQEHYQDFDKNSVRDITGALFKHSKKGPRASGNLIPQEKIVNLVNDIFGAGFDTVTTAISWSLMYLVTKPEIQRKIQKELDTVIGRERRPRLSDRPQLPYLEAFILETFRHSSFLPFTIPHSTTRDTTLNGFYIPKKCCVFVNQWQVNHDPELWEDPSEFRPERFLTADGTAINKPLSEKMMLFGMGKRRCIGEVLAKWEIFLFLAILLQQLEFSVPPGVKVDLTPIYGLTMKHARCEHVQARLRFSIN

CYP2C19 = molecular target: T2, CYP2C19 (Homo sapiens, UniProt P33261); assay: CYP inhibition in human liver microsomes; format: in vitro ADME; details: 0.5-25 μM
T2 construct: substrates of different CYP450 enzymes in mixed human liver microsomes; from tissue; host or cells: mixed human liver microsomes
T2 sequence (P33261 whole entry): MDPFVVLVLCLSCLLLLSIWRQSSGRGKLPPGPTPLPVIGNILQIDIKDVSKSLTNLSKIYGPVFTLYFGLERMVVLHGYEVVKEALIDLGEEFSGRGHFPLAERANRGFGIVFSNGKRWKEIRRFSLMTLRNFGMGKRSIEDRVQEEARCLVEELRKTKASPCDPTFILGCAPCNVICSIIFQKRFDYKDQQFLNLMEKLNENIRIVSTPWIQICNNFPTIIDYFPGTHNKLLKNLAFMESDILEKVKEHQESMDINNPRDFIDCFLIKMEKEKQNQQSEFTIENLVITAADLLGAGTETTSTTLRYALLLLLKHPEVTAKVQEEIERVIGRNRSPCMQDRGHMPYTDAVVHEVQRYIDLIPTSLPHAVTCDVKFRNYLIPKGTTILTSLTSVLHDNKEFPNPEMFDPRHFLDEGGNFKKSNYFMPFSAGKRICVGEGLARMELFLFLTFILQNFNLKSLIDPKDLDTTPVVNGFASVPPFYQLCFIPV

CYP3A4 = assay: CYP induction in hepatocytes; format: in vitro ADME, human; details: 1, 5, 50 μM, three donors
Caco-2 permeability = format: in vitro ADME, human
[4] = Acute toxicity, single oral gavage; details: both sexes, beagle, dog, in vivo, read-out: MTD, single dose
[5] = 28-day repeat-dose toxicity; format: in vivo; details: SD, rat, plasma, po; for AUC(0-t): read-out: AUClast at STD10, day 28; for Cmax: read-out: Cmax at STD10, day 28
SD rats = assay: 28-day repeat-dose toxicity; format: in vivo
beagles = assay: 28-day repeat-dose toxicity; format: in vivo
rat bone marrow cells = assay: In vivo bone marrow micronucleus test
Method: The bone marrow cell micronucleus test was positive in male rats at ≥100 mg/kg/day and in female rats at ≥300 mg/kg/day.

preclinical animals = assay: Preclinical animal long term (repeat-dose) toxicity tests, species not stated; format: in vivo
[6] = both sexes, SD, rat, plasma, iv, 1 mg/kg i.v.
[7] = both sexes, SD, rat, plasma, po, gavage 5 mg/kg
[8] = both sexes, SD, rat, plasma, po, gavage 20 mg/kg
[9] = both sexes, SD, rat, plasma, po, gavage 50 mg/kg
[10] = preclinical SD rat repeated administration

Compound: COc1ccc(CN2C3CC2CN(c2ccc(-c4cc(N5CC(C)(O)C5)cn5ncc(C#N)c45)cn2)C3)cn1 [SY-5007, 6-(3-hydroxy-3-methylazetidin-1-yl)-4-(6-(6-((6-methoxypyridin-3-yl)methyl)-3,6-diazabicyclo[3.1.1]heptan-3-yl)pyridin-3-yl)pyrazolo[1,5-a]pyridine-3-carbonitrile]
- Patients with complete RET clearance in ctDNA (RET alterations in ctDNA): 21 patients
- IC50 (TT cells (RET^C634W)): 0.00911 µM
- IC50 (hERG potassium channel): 3.3 µM
- clearance (Pharmacokinetics in rats; [6]): 3.42 mL/min/kg
- half-life (Pharmacokinetics in rats; [6]): 3.34 h
- Vd (Pharmacokinetics in rats; both sexes, SD, rat, plasma, iv, 1 mg/kg i.v., read-out: Vss): 0.697 L/kg
- AUC(0-inf) (Pharmacokinetics in rats; [7]): 11.9 µg·h/mL
- Cmax (Pharmacokinetics in rats; [7]): 2190 ng/mL
- AUC(0-inf) (Pharmacokinetics in rats; [8]): 48.1 µg·h/mL
- Cmax (Pharmacokinetics in rats; [8]): 7150 ng/mL
- AUC(0-inf) (Pharmacokinetics in rats; [9]): 112 µg·h/mL
- Cmax (Pharmacokinetics in rats; [9]): 12600 ng/mL
- half-life (Pharmacokinetics in rats; both sexes, SD, rat, plasma, po, gavage 5-50 mg/kg): 3.61 to 4.49 h
- MRT inf (Pharmacokinetics in rats; both sexes, SD, rat, plasma, po, gavage 5-50 mg/kg, read-out: MRTINF_obs): 4.92 to 6.96 h
- bioavailability (Pharmacokinetics in rats; both sexes, SD, rat, plasma, po, gavage 5-50 mg/kg, read-out: Oral bioavailability (F)): 39.1 to 42.1%
- Tmax (Pharmacokinetics in rats; both sexes, SD, rat, plasma, po, single gavage 5, 20, 50 mg/kg): 0.25 to 2 h
- AUC0-24h increase day 7 vs day 1 (Pharmacokinetics in rats; males, 20 mg/kg once daily 7 days): 47.3%
- Kp ([1]; brain, read-out: Brain exposure (AUC0~24h)): 0.00195
- Kp ([1]; liver, read-out: Liver exposure (AUC0~24h)): 3.58
- Kp ([1]; lung, read-out: Lung exposure (AUC0~24h)): 1.73
- Kp ([1]; stomach, read-out: Stomach exposure (AUC0~24h)): 2.02
- fraction unbound [2]: 0.042
- Metabolic half-time ([3]; dog liver microsomes): 280 min
- Metabolic half-time ([3]; human liver microsomes): 166 min
- Metabolic half-time ([3]; monkey liver microsomes): 57.9 min
- Metabolic half-time ([3]; mouse liver microsomes): 109 min
- Metabolic half-time ([3]; rat liver microsomes): 384 min
- IC50 (CYP1A2): > 25 µM
- IC50 (CYP2C19): > 25 µM
- CYP3A4 induction (CYP3A4): no induction
- Permeability class (Caco-2 permeability): moderately permeable
- MTD [4]: 200 mg/kg
- AUC(0-t) ([5]; female, females 60 mg/kg): 122 µg·h/mL
- Cmax ([5]; female, females 60 mg/kg): 14900 ng/mL
- AUC(0-t) ([5]; male, males 30 mg/kg): 111 µg·h/mL
- Cmax ([5]; male, males 30 mg/kg): 8160 ng/mL
- STD10 (SD rats; female SD rats, GLP long toxicity study): 60 mg/kg
- STD10 (SD rats; females, 28 days): 60 mg/kg
- STD10 (SD rats; male SD rats, GLP long toxicity study): 30 mg/kg
- STD10 (SD rats; males, 28 days): 30 mg/kg
- Electrolyte abnormalities (blood PK) (SD rats; [10]): ? Abnormalities such as blood PK were found in the preclinical SD rat and Beagle repeated administration test of this product, and the relevant regulations were carried out in consideration of the fact that similar mechanism of action drugs have been reported.
- Plasma protein: TP, ALB, A/G (SD rats; [10]): ? TP, ALB, A/G were abnormal in the repeated administration test of preclinical SD rats of this product, and considering that drugs with similar mechanisms of action have been reported, relevant provisions are made.
- TG (hyperlipidemia) (SD rats; [10]): ? TG is abnormal in the repeated administration test of preclinical SD rats of this product, and considering that drugs with similar mechanisms of action have been reported, relevant provisions are made.
- Bleeding tendency: gastric mucosa and ileum findings (SD rats; preclinical SD rats, repeated dosing): ? This drug was found to have gastric mucosal reddening and ileal discolouration in preclinical SD rats and Beagle dogs in repeated dosing tests, so the relevant provisions were made.
- Kidney: creatinine (SD rats; repeat dose study in SD rats): elevated creatinine
- HNSTD (beagles; female Beagle, GLP long toxicity study): 8 mg/kg
- HNSTD (beagles; females, 28 days): 8 mg/kg
- HNSTD (beagles; male Beagle, GLP long toxicity study): 4 mg/kg
- HNSTD (beagles; males, 28 days): 4 mg/kg
- Bleeding tendency: gastric mucosa and ileum findings (beagles; preclinical Beagle dogs, repeated dosing): ? This drug was found to have gastric mucosal reddening and ileal discolouration in preclinical SD rats and Beagle dogs in repeated dosing tests, so the relevant provisions were made.
- Electrolyte abnormalities (blood PK) (beagles; preclinical Beagle repeated administration): ? Abnormalities such as blood PK were found in the preclinical SD rat and Beagle repeated administration test of this product, and the relevant regulations were carried out in consideration of the fact that similar mechanism of action drugs have been reported.
- Dose at which micronucleus test positive (rat bone marrow cells; female rats): ≥ 300 mg/kg/day
- Dose at which micronucleus test positive (rat bone marrow cells; male rats): ≥ 100 mg/kg/day
- Liver and gallbladder toxicity (preclinical animals; preclinical animal long term toxicity tests): ? Provision is made for the toxicity to the liver and gallbladder found in preclinical animal long term toxicity tests, and for adverse events associated with drugs with a similar mechanism of action to this product.
- Reproductive toxicity (reproductive tissue weight) (preclinical animals; preclinical long toxicity experiments): ? Preclinical long toxicity experiments observed a weight reduction in reproductive tissue, so relevant regulations are made.
